Reference: patent US9353082B2, “Pharmaceutical compounds” (BIAL—PORTELA & CA, S.A., priority 2008, dated 2016)

Columns and labels:
FAAH [1] = target: T1, FAAH (Mus musculus, UniProt O08914); experiment: In vivo FAAH inhibition after oral dosing, remaining activity in brain homogenate (BRh, central nervous tissue); parameters: species or system NMRI mice; settings: brain homogenate, 3 mg/kg, 8 h
T1 construct: A fragment of liver, left lung lobe and brain without cerebellum were removed; from tissue; host or cells: male NMRI mice; brain (without cerebellum) and liver homogenates
T1 sequence (O08914 1-579): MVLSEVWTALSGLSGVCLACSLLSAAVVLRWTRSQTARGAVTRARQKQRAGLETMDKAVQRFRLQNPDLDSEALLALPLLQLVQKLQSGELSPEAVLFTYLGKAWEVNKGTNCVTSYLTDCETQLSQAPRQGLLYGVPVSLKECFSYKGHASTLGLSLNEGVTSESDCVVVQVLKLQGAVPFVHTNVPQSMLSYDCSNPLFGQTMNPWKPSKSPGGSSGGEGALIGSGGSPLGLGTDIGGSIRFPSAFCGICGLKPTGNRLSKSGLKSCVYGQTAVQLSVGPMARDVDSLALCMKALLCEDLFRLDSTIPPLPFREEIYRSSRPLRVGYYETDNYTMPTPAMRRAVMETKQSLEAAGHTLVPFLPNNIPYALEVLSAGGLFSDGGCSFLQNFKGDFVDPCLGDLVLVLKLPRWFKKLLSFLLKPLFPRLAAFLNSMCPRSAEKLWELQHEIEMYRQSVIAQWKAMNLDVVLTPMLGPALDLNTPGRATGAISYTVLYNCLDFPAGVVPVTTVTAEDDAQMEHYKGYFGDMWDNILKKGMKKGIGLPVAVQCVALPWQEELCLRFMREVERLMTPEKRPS
Method in brief: (§1)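 Remaining FAAH activity is given as % of vehicle-treated controls after blank subtraction, measured by radiolabelled AEA hydrolysis (2 μM AEA, 5 nM 3H-AEA, 37 °C) in brain (10 min) or liver (7 min) homogenates. These came from fasted male NMRI mice dosed orally at 30 or 3 mg/kg.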

FAAH [2] = target: T1, FAAH; experiment: In vivo FAAH inhibition after oral dosing, remaining activity in liver homogenate (LVh, peripheral tissue); parameters: species or system NMRI mice; settings: liver homogenate, 3 mg/kg, 8 h
Method in brief: as §1

FAAH [3] = target: T2, FAAH (Rattus norvegicus, UniProt P97612); experiment: In vitro FAAH activity in rat brain membranes, 3H-AEA substrate, % of control; assay type: biochemical, Wistar rats; settings: 100 nM test compound, low value = strong inhibitor
T2 construct: Frozen brains (without cerebellum) from Wistar rats were used; from tissue; host or cells: Wistar rat brain (without cerebellum), washed membrane pellets
T2 sequence (P97612 1-579): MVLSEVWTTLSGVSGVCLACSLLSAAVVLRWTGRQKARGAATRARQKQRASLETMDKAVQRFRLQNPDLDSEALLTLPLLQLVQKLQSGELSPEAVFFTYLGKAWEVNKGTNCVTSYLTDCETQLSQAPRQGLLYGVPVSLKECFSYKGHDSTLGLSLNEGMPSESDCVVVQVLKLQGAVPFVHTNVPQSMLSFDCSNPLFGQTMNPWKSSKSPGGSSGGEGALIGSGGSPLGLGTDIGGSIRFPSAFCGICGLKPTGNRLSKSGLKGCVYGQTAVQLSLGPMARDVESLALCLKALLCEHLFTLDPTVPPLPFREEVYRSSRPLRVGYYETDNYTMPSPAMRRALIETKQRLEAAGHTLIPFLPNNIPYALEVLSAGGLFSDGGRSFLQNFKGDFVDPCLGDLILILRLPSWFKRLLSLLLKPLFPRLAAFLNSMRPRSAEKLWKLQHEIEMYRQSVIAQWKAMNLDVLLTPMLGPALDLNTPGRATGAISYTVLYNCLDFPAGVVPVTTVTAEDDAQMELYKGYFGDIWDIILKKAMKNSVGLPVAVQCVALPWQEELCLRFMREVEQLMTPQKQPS
Method in brief: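 FAAH activity measured as 3H-ethanolamine released from 2 μM [3H]AEA over 10 min by rat brain membrane preparation, after 15 min 37 °C preincubation with test compound at 10 or 0.1 μM. Charcoal-separated supernatant scintillation-counted; values expressed as % of control minus no-protein blank.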

In Vivo BRh 3 mg/kg 8 h, remaining FAAH activity (FAAH [1]) | In Vivo LVh 3 mg/kg 8 h, remaining FAAH activity (FAAH [2]) | In Vitro FAAH activity, 100 nM (FAAH [3]) | SMILES
89.9 % of control | 116.5 % of control | 0.3 % of control | Cl.N#Cc1ccc(Oc2ccc(-c3ncn(C(=O)N4CCN(c5ccccc5)CC4)n3)cc2)cc1 [Compound 145, 4-(4-(1-(4-phenylpiperazine-1-carbonyl)-1H-1,2,4-triazol-3-yl)phenoxy)benzonitrile hydrochloride]
124.4 % of control | 103 % of control | 55.1 % of control | NC(=O)c1ccc(Oc2ccc(-c3ncn(C(=O)N4CCOCC4)n3)cc2)cc1 [Compound 147, 4-(4-(1-(morpholine-4-carbonyl)-1H-1,2,4-triazol-3-yl)phenoxy)benzamide]
113.7 % of control | 87.6 % of control | 0.3 % of control | NC(=O)c1ccc(Oc2ccc(-c3ncn(C(=O)N4CCN(c5ccccc5)CC4)n3)cc2)cc1 [Compound 148, 4-(4-(1-(4-phenylpiperazine-1-carbonyl)-1H-1,2,4-triazol-3-yl)phenoxy)benzamide]
5.6 % of control | 3.8 % of control | 1.2 % of control | CN(Cc1ccccc1)C(=O)n1cnc(-c2ccc(F)cc2)c1 [Compound 150, N-benzyl-4-(4-fluorophenyl)-N-methyl-1H-imidazole-1-carboxamide]
116.7 % of control | 65.8 % of control | 0.4 % of control | CN(Cc1ccccc1)C(=O)n1cnc(-c2ccc(Oc3ccc(C(N)=O)cc3)cc2)n1 [Compound 151, N-benzyl-3-(4-(4-carbamoylphenoxy)phenyl)-N-methyl-1H-1,2,4-triazole-1-carboxamide]
144.1 % of control | 108.2 % of control | 0.4 % of control | O=C(N1CCN(c2ccccc2)CC1)n1cnc(-c2cccs2)n1 [Compound 155, (4-phenylpiperazin-1-yl)(3-(thiophen-2-yl)-1H-1,2,4-triazol-1-yl)methanone]

More lines, now with the values behind:

SMILES | In Vivo BRh 3 mg/kg 8 h, remaining FAAH activity (FAAH [1]) | In Vivo LVh 3 mg/kg 8 h, remaining FAAH activity (FAAH [2]) | In Vitro FAAH activity, 100 nM (FAAH [3])
Cc1ccc(OC2CCN(C(=O)n3nnc4ccccc43)CC2)cc1 [Compound 99, (1H-benzo[d][1,2,3]triazol-1-yl)(4-(p-tolyloxy)piperidin-1-yl)methanone] | 99.1 % of control | 71.4 % of control | 0.2 % of control
O=C(N1CCC(CCc2ccccc2)CC1)n1nnc2ccccc21 [Compound 100, (1H-benzo[d][1,2,3]triazol-1-yl)(4-phenethylpiperidin-1-yl)methanone] | 68.1 % of control | 40.5 % of control | 0.2 % of control
O=C(N1CCC(CCCc2ccccc2)CC1)n1nnc2ccccc21 [Compound 110, (1H-benzo[d][1,2,3]triazol-1-yl)(4-(3-phenylpropyl)piperidin-1-yl)methanone] | 51.7 % of control | 10.2 % of control | 0.1 % of control
CN(C(=O)n1cnc(-c2ccc(C(N)=O)cc2)c1)c1ccccc1 [Compound 113, 4-(4-carbamoylphenyl)-N-methyl-N-phenyl-1H-imidazole-1-carboxamide] | 84.1 % of control | 32.3 % of control | 90.3 % of control
O=C(N1CCC(c2ccncc2)CC1)n1nnc2ccccc21 [Compound 114, (1H-benzo[d][1,2,3]triazol-1-yl)(4-(pyridin-4-yl)piperidin-1-yl)methanone] | 102.9 % of control | 109.9 % of control | 0.1 % of control
O=C(N1CCC(c2nc(-c3cccnc3)no2)CC1)n1nnc2ccccc21 [Compound 116, (1H-benzo[d][1,2,3]triazol-1-yl)(4-(3-(pyridin-3-yl)-1,2,4-oxadiazol-5-yl)piperidin-1-yl)methanone] | 126.2 % of control | 113.2 % of control | 0.5 % of control
O=C(N1CCN(Cc2ccc(F)cc2)CC1)n1nnc2ccccc21 [Compound 121, (1H-benzo[d][1,2,3]triazol-1-yl)(4-(4-fluorobenzyl)piperazin-1-yl)methanone] | 118.6 % of control | 116.1 % of control | 0 % of control
O=C(NC12CC3CC(CC(C3)C1)C2)n1nnc2ccccc21 [Compound 126, N-adamantyl-1H-benzo[d][1,2,3]triazole-1-carboxamide] | 0.2 % of control | 2.2 % of control | 0 % of control
O=C(N1CCN(C2CCCCC2)CC1)n1nnc2ccccc21 [Compound 127, (1H-benzo[d][1,2,3]triazol-1-yl)(4-cyclohexylpiperazin-1-yl)methanone] | 111.5 % of control | 107.3 % of control | 0.1 % of control
CN(CCCCCc1ccccc1)C(=O)n1nnc2ccccc21 [Compound 129, N-methyl-N-(5-phenylpentyl)-1H-benzo[d][1,2,3]triazole-1-carboxamide] | 2.5 % of control | 2 % of control | 0 % of control
O=C(N1CCC(OCCCc2ccccc2)CC1)n1nnc2ccccc21 [Compound 135, (1H-benzo[d][1,2,3]triazol-1-yl)(4-(3-phenylpropoxy)piperidin-1-yl)methanone] | 26.5 % of control | 30.1 % of control | 0.1 % of control
CN1CCN(c2ccc(-c3ncn(C(=O)N4CCOCC4)n3)cc2)CC1 [Compound 139, (3-(4-(4-methylpiperazin-1-yl)phenyl)-1H-1,2,4-triazol-1-yl)(morpholino)methanone] | 97.1 % of control | 105.7 % of control | 80.2 % of control
CN(C(=O)n1nnc2ccccc21)C1CCC2(CC1)OCC(C)(C)CO2 [Compound 143, N-(3,3-dimethyl-1,5-dioxaspiro[5.5]undec-9-yl)-N-methyl-1H-benzotriazole-1-carboxamide] | 0.4 % of control | 0.7 % of control | 2.5 % of control
COc1ccc(OCCC2CCN(C(=O)n3nnc4ccccc43)CC2)cc1 [Compound 144, (1H-benzo[d][1,2,3]triazol-1-yl)(4-(2-(4-methoxyphenoxy)ethyl)piperidin-1-yl)methanone] | 68.2 % of control | 17.6 % of control | 0.1 % of control
